Entries after “also recorded” stand apart in the source; their conditions may differ. Where two headings read alike, the source gives them in different places.

The record followed here is patent US11174282B2, “Aminosteroid derivatives and process for producing same” (UNIVERSITÉ LAVAL, priority 2016, dated 2021).

Data set [1] concerns PANC-1, BxPC-3, Hs766, OVCAR-3, Caov3, SKOV3, MCF-7, T-47D and LAPC-4 cell lines. The experiment in a line: Cytotoxic activity screening at 5 and 1 μM on cancer cell lines. The settings on record: independently of the cancer cell line tested, result in words.
Description: The cell proliferation assay was performed using 3-(4,5-dimethylthiazol-2-yl)-5-(3-carboxymethoxyphenyl)2-(4-sulfophenyl)-2H-tetrazolium (MTS) (Cell Titer 96 Aqueous, Promega, Nepean, ON, Canada) as previously described [3, 4, 5]. Briefly, cells were plated in triplicate in 96-well plates (1×10^4 cells/well) in appropriate culture medium (total of 90 μL). Before each treatment, the cells were incubated at 37° C. in a 5% CO2 humidified atmosphere for 24 h. The different aminosteroids were dissolved in methanol (50 mM). The stock solutions were diluted at multiple concentrations with culture media in order to obtain the desired final concentration followed by the addition of 10 μL to each well, and the mixture incubated for 3 days. Following treatment, MTS (10 μL) was added to each well and the mixture was incubated for 4 h.
Data set [2] deals with LAPC-4 (prostate cancer) cells. The experiment in a line: Cell proliferation assay (MTS), LAPC-4. In kind it is cell-based. The settings on record: Homo sapiens, LAPC4, 72 h, 3 days treatment, MTS; read-out: IC50 (μM) Prostate cancer LAPC-4. As to the method:
(§1) The different aminosteroids were dissolved in methanol (50 mM).

Data set [3] relates to T-47D breast cancer cell line. The experiment in a line: Cell proliferation assay (MTS), T-47D. The data set is classed as cell-based. To be noted: 72 h; for IC50: Homo sapiens, T47D, 3 days treatment, MTS. The method, then:
as §1

Data set [4] has as its system PC-3 (prostate cancer) cells. Kind of data set: Cell proliferation assay (MTS), PC-3. In kind it is cell-based. The settings on record: 72 h, read-out: IC50 (μM) Prostate cancer PC-3. The method, then: as §1
Another data set is described as follows: Water solubility. To be noted: relative to RM-581-OH. In kind it is physicochemical.
The subject of data set [5] is OVCAR-3 cells (ovarian cancer). The experiment in a line: Cell proliferation assay (MTS), OVCAR-3. In kind it is cell-based. To be noted: Homo sapiens, OVCAR-3, 72 h, 3 days treatment, MTS; read-out: IC50 (μM) Ovarian cancer OVCAR-3. The method, then:
as §1

The subject of data set [6] is LNCaP (prostate cancer) cells. Kind of data set: Cell proliferation assay (MTS), LNCaP. In kind it is cell-based. To be noted: Homo sapiens, 72 h, read-out: IC50 (μM) Prostate cancer LNCaP. The method, then: as §1
Data set [7] is described as follows: Metabolic stability assay, human liver microsomes. To be noted: 10 μM, 1 h, 40 μg human liver microsomes; result in words.
Description: (§2) Assays were performed at 37° C. for 1 h, with or without 10 mM NADPH in the presence of 40 μg of human liver microsome from Corning (Melrose, Mass., USA) and 10 μM of aminosteroid substrate in a final 100 μL volume of 50 mM Tris buffer (pH 7.4) supplemented with 10 mM MgCl2. Assays were ended by adding 100 μL of MeOH followed by centrifugation at 13,000 g for 10 min to obtain a pellet of proteins. The supernatant of 2 assays was pooled and submitted to HPLC-MS analysis (Shimadzu LCMS-2020 APCI, Alltima HP C18 (250 mm×4.6 mm, 5 μm) column, MeOH:H2O gradient). Remaining substrate (expressed in %) was calculated by dividing the area under the curve of the substrate for the assays without NADPH by the area under the curve of the substrate for the assays with NADPH and multiplied by 100. Values represent the average of 2 independent experiments.
In data set [8] the test system is Human pancreas cancer cells (PANC-1). Kind of data set: Cell proliferation assay (MTS), PANC-1. In kind it is cell-based. To be noted: Homo sapiens, PANC-1, 72 h, 3 days treatment, MTS; read-out: IC50 (μM) Pancreatic cancer PANC-1. As to the method:
as §1

The test system of data set [9] is MCF-7 breast cancer cells. Kind of data set: Cell proliferation assay (MTS), MCF-7. In kind it is cell-based, human. The settings on record: 3 days treatment. The method, then:
as §1

A short description of a further data set: in vivo. The settings on record: female, Balb/c, mouse.
Data set [10] concerns renal proximal tubule epithelial cells (RPTEC). The experiment in a line: Toxicity on normal cells (MTS), RPTEC. In kind it is cell-based, human. The settings on record: Homo sapiens, RPTEC, normal (kidney) cells; read-out: IC50 (μM) RPTEC (normal cells). As to the method: as §1
For data set [11], the system named is human MCF-7 breast tumors. Kind of data set: MCF-7 tumor growth (xenograft) in ovariectomized nude mice. In kind it is in vivo. The settings on record: 60 mg/kg s.c., 28-day treatment. From the text:
FIG. 2 is an illustration of the effect of aminosteroid RM-581-102 (compound 6) on MCF-7 tumor growth. A) Effect of a 28-day treatment on 17β-estradiol (E2)-induced growth of human MCF-7 breast tumors in ovariectomized (OVX) nude mice in accordance with an embodiment of the present disclosure. Tumor sizes are expressed as the percentage of initial tumor area (day 1 of treatment=100%). Data are expressed as the mean±SEM (n=10-12 tumors and 6-7 mice per group). […] B) Initial and final body weight of the mice.

In data set [12] the test system is MCF-10A cells (model for normal breast cells). Kind of data set: Cell proliferation assay (MTS), MCF-10A. The data set is classed as cell-based. The method, then:
A selectivity index (SI) for RM-581-102 was calculated as the ratio of its IC50 value in MCF-10A cells, a cell line used as a model for normal breast cells, versus its IC50 value in MCF-7 breast cancer cells (Table 4). […] It would thus appear that the replacement of the 5α-androstane-3α,17β-diol backbone by that of mestranol, is beneficial for the selectivity of these aminosteroid derivatives.
as §1

For data set [13] the following is noted: human, microsomes, 1 h, 10 μM, pH 7.4.
Description: as §2

Description for in vivo: The plasmatic concentration (AUC) of RM-581-102 was determined following four different methods of administration (s.c., p.o., i.v. and i.p.) at the following concentrations: 60 mg/kg of body weight in 0.1 mL for s.c. and p.o. administration; 2 mg/kg of body weight in 0.02 mL for i.v. caudal administration; and 20 mg/kg of body weight in 0.1 mL for i.p. administration. For the s.c., p.o. and i.p. administrations, RM-581-102 was first dissolved in DMSO followed by the addition of propylene glycol to obtain a final concentration of DMSO of 8%. Regarding the i.v. administration, RM-581-102 was first dissolved in DMSO (8%) followed by the addition of DMA (38%) and propylene glycol (60%). For the i.v. administration, the mice were fasted over a period of 8 h before injection of RM-581-102.
Animals: Six to seven week-old female Balb/c mice weighing approximately 18 g were obtained from Charles-River, Inc (St-Constant, Qc., Canada). The animals were acclimatized to environmental conditions (temperature: 22±3° C.; humidity: 50±20%; 12-h light/12-h dark cycles, lights on at 07:15 h) for at least 5 days before starting the experiment. The animals were housed three per cage and were allowed free access to water and a certified commercial rodent food (Rodent diet #T.2018.15, Harlan Teklad, Madison, Wis., U.S.A.). The experiments with the animals were conducted in an animal facility approved by the Canadian Council on Animal Care (CCAC) and the Association for Assessment and Accreditation of Laboratory Animal Care. The study was performed in accordance with the CCAC Guide for Care and Use of Experimental Animals. Institutional approval was obtained.
Assay: The pharmacokinetic study was carried out following four different methods of administration (s.c., p.o., i.v. and i.p.) of RM-581-102 at the following concentrations: 60 mg/kg of body weight in 0.1 mL for s.c. and p.o. administration; 2 mg/kg of body weight in 0.02 mL for i.v. caudal administration; and 20 mg/kg of body weight in 0.1 mL for i.p. administration. For the s.c., p.o. and i.p. administrations, RM-581-102 was first dissolved in DMSO followed by the addition of propylene glycol to obtain a final concentration of DMSO of 8%. Regarding the i.v. administration, RM-581-102 was first dissolved in DMSO (8%) followed by the addition of DMA (38%) and propylene glycol (60%). For the i.v. administration, the mice were fasted over a period of 8 h before injection of RM-581-102. Blood samples for the determination of RM-581-102 plasma concentrations were collected by cardiac puncture at target intervals ranging from 5 minutes to 24 hours post-dose administration from 3 mice/time point. The blood samples were collected in Microvette® potassium-EDTA (ethylenediamine tetra-acetic acid)-coated tubes (Sarstedt AG & Co, Germany) and centrifuged at 3200 rpm for 10 minutes at 4° C. The plasma was subsequently collected and stored at −80° C. until analysis by liquid chromatography/mass spectrometry/mass spectrometry (LC/MS/MS).
The plasma concentrations of RM-581-102 was determined by LC/MS/MS analysis using a procedure developed at CHUQ (CHUL)—Research Center (Bioanalytical Service). For extraction from the plasma, a plasma sample (100 μL) was transferred to individual tubes and 600 μL of ammonium acetate (1 mM) was added. A methanolic solution (50 μL) containing a deuterated steroid internal standard was then added to each tube. Samples were then transferred on Strata-X SPE columns (Phenomenex, Torrance, Calif., USA) and each column was washed with water and methanol:water (10:90, v/v). RM-581-102 was then eluted with 5 mL of methanol containing 1 mM ammonium acetate.

In the case of `C#C[C@@]1(O)CC[C@H]2[C@@H]3CCc4cc(OP(=O)(O)O)c(N5CCN(C(=O)[C@@H]6CCCN6C(=O)c6ccc7ccccc7n6)CC5)cc4[C@H]3CC[C@@]21C` [Compound 5, (17β)-17-ethynyl-17-hydroxy-2-{4-[1-(quinolin-2-ylcarbonyl)-L-prolyl]piperazin-1-yl}estra-1,3,5(10)-trien-3-yl dihydrogen phosphate], in data set [1], the “cytotoxic activity in screening (cell survival)” value is given as “without adversely affecting the antiproliferative properties; also recorded: only slight differences in their respective levels of activity”. Further, the IC50 (as a rule, the concentration needed to halve the response being measured) was 0.3 ± 0.07 µM in [2]; 0.3 ± 0.05 µM in [3]; 1.3 ± 0.05 µM in data set [4]; 4.6 ± 0.7 µM in [5]; 0.6 ± 0.05 µM in [6]; 2.6 ± 0.1 µM in [8]. In addition, the IC50 in data set [9] (Homo sapiens, MCF7, 72 h) was 1.5 ± 0.3 µM. For the same compound, the water solubility entry in the data set “Water solubility” is listed as “significant enhancement of water solubility”. For the same compound, the “metabolic stability (% of remaining compound)” value in data set [7] is given as “stability similar to its phenolic counterpart”.
Consider `C#C[C@]1(O)CC[C@H]2[C@@H]3CCc4cc(OC)c(N5CCN(C(=O)[C@@H]6CCCN6C(=O)c6ccc7ccccc7n6)CC5)cc4[C@H]3CC[C@@]21C` [RM-581, {4-[17α-Ethynyl-17I-hydroxy-3-methoxyestra-1,3,5(10)-trien-2-yl]piperazin-1-yl}[(2S)-1-(quinolin-2-ylcarbonyl)pyrrolidin-2-yl]methanone], for which the AUC(0-t) (commonly exposure summed from dosing to a finite time, without extrapolation to infinity) was found to be 11400 ng·h/mL in “in vivo” (ip, 20 mg/kg); 595 ng·h/mL in “in vivo” (iv, 2 mg/kg); 5540 ng·h/mL in the data set “in vivo” (po, 60 mg/kg); 7760 ng·h/mL in “in vivo” (sc, 60 mg/kg). Moreover, the concentration at 3 h came out at 5300 ng/mL in “in vivo” (ip, 20 mg/kg); 300 ng/mL in the data set “in vivo” (iv, 2 mg/kg); 550 ng/mL in “in vivo” (po, 60 mg/kg); 600 ng/mL in “in vivo” (sc, 60 mg/kg). Moreover, the half-inhibitory concentration (IC50) was 0.6 ± 0.3 µM in [2]; greater than 50 µM in data set [10]; 0.5 ± 0.05 µM in data set [3]; 1.6 ± 0.3 µM in data set [4] (3 days treatment, MTS); 5 ± 0.5 µM in data set [5]; 16.8 µM in [12] (Homo sapiens, MCF-10A, model for normal breast cells). Besides, the IC50 in data set [6] (3 days treatment, MTS) came out at 1.2 ± 0.6 µM; in data set [8] it was 3.9 ± 0.9 µM; in data set [9], 2.6 ± 0.3 µM; in data set [9] (listed as RM-581-102), 1.1 ± 0.1 µM. The “cytotoxic activity compared with known antineoplastic agents” value in [3] (T-47D, 1.0 and 5 μM, vs paclitaxel, gemcitabine, fluorouacil, oxaliplatin, irinotecan) is listed as “stronger cytotoxic activities at both concentrations”. Moreover, the “behavioral changes, signs of toxicity and weight loss” value in data set [11] (compared with control groups) was “no behavioral changes, signs of toxicity and weight loss”. For the same compound, in data set [11] (6 days per week, E2-stimulated OVX nude mice), the “MCF-7 tumor growth (tumor size, % of initial tumor area)” value is recorded as “complete blockade of tumor growth; also recorded: significant tumor regression from day 21 up to day 28”. Besides, the “times more selective compared to RM-133” value in data set [12] (in vitro MCF-7 and MCF-10A cell models) is 5.1 times. Further, the “Selectivity Index” value in data set [12] (ratio of IC50 in MCF-10A cells versus IC50 in MCF-7 cells) was found to be 15.3. Also, in data set [13], the “metabolic stability (% of remaining compound)” value is reported as “significantly more stable toward phase-I hepatic metabolism than RM-133”.
